The results in this text go back to ChEMBL document CHEMBL5303573, “Mapping human microbiome drug metabolism by gut bacteria and their genes” (Nature, 2019).

The first series in a line: The drug is tested on Anaerococcus hydrogenalis strain: DSM7454 for biotransformation. The drug concentrations were measured before and after a 12-h incubation by liquid-chromatography-coupled mass spectrometry (LC–MS). To be noted: 2 µM.
With `O=C1CN2Cc3c(ccc(Cl)c3Cl)N=C2N1` [ANAGRELIDE], the “Bacterial Biotransformation” value is listed as “Compound NOT metabolized”.
Same read-out and setting: with `CCCC1O[C@@H]2C[C@H]3[C@@H]4CCC5=CC(=O)C=C[C@]5(C)[C@H]4[C@@H](O)C[C@]3(C)[C@]2(C(=O)CO)O1` (some centres not stated) [BUDESONIDE] the entry was “Compound NOT metabolized”; with `CN1C(=O)CCS(=O)(=O)C1c1ccc(Cl)cc1` (configuration not stated) [CHLORMEZANONE], “Compound NOT metabolized”.

The next series in a line: The drug is tested on Ruminococcus torques strain: ATCC27756 for biotransformation. The drug concentrations were measured before and after a 12-h incubation by liquid-chromatography-coupled mass spectrometry (LC–MS). Type of series: ADME. Details: dose 2 uM, timepoint 0 vs 12 hours. To be noted: 2 µM.
Consider `O=C1CN2Cc3c(ccc(Cl)c3Cl)N=C2N1` [ANAGRELIDE], for which the “Bacterial Biotransformation” value is “Compound NOT metabolized”.
`CCCC1O[C@@H]2C[C@H]3[C@@H]4CCC5=CC(=O)C=C[C@]5(C)[C@H]4[C@@H](O)C[C@]3(C)[C@]2(C(=O)CO)O1` (some centres not stated) [BUDESONIDE]: the “Bacterial Biotransformation” value is recorded as “Compound NOT metabolized”.
The same measure, in the same setting: the same measure for `CN1C(=O)CCS(=O)(=O)C1c1ccc(Cl)cc1` (configuration not stated) [CHLORMEZANONE]: “Compound NOT metabolized”.

The nature of another series: The drug is tested on Bacteroides uniformis strain: ATCC8492 for biotransformation. The drug concentrations were measured before and after a 12-h incubation by liquid-chromatography-coupled mass spectrometry (LC–MS). To be noted: 2 µM.
For the compound `CN1C(=O)CCS(=O)(=O)C1c1ccc(Cl)cc1` (configuration not stated) [CHLORMEZANONE], the “Bacterial Biotransformation” value was “Compound NOT metabolized”.

Another series is described as follows: The drug is tested on Bacteroides dorei strain: DSM17855 for biotransformation. The drug concentrations were measured before and after a 12-h incubation by liquid-chromatography-coupled mass spectrometry (LC–MS). Conditions: phocaeicola dorei, 2 µM.
For the compound `O=C1CN2Cc3c(ccc(Cl)c3Cl)N=C2N1` [ANAGRELIDE], the “Bacterial Biotransformation” value is reported as “Compound metabolized”.
With `CCCC1O[C@@H]2C[C@H]3[C@@H]4CCC5=CC(=O)C=C[C@]5(C)[C@H]4[C@@H](O)C[C@]3(C)[C@]2(C(=O)CO)O1` (some centres not stated) [BUDESONIDE], the “Bacterial Biotransformation” value was “Compound metabolized”.

The conditions of a further series: limosilactobacillus reuteri cf48-3a, 12 h, 2 µM.
Description: The drug is tested on Lactobacillus reuteri CF48-3A strain: BEI HM-102 for biotransformation. The drug concentrations were measured before and after a 12-h incubation by liquid-chromatography-coupled mass spectrometry (LC–MS)
For `CCCC1O[C@@H]2C[C@H]3[C@@H]4CCC5=CC(=O)C=C[C@]5(C)[C@H]4[C@@H](O)C[C@]3(C)[C@]2(C(=O)CO)O1` (some centres not stated) [BUDESONIDE], the “Bacterial Biotransformation” value was “Compound NOT metabolized”.
On the same count and under the same terms, with `CN1C(=O)CCS(=O)(=O)C1c1ccc(Cl)cc1` (configuration not stated) [CHLORMEZANONE] the entry was “Compound NOT metabolized”.

For a further series the following is noted: bifidobacterium adolescentis, 12 h, 2 µM.
Description: The drug is tested on Bifidobacterium adolescentis strain: ATCC 15703 for biotransformation. The drug concentrations were measured before and after a 12-h incubation by liquid-chromatography-coupled mass spectrometry (LC–MS)
Consider `O=C1CN2Cc3c(ccc(Cl)c3Cl)N=C2N1` [ANAGRELIDE], for which the “Bacterial Biotransformation” value is “Compound NOT metabolized”.
On the same count and under the same terms, the same measure for `CCCC1O[C@@H]2C[C@H]3[C@@H]4CCC5=CC(=O)C=C[C@]5(C)[C@H]4[C@@H](O)C[C@]3(C)[C@]2(C(=O)CO)O1` (some centres not stated) [BUDESONIDE]: “Compound NOT metabolized”; for `CN1C(=O)CCS(=O)(=O)C1c1ccc(Cl)cc1` (configuration not stated) [CHLORMEZANONE]: “Compound NOT metabolized”.

The nature of the next series: The drug is tested on Providencia stuartii strain: ATCC25827 for biotransformation. The drug concentrations were measured before and after a 12-h incubation by liquid-chromatography-coupled mass spectrometry (LC–MS). Conditions: 2 µM.
With `O=C1CN2Cc3c(ccc(Cl)c3Cl)N=C2N1` [ANAGRELIDE], the “Bacterial Biotransformation” value is “Compound NOT metabolized”.
Turning to `CN1C(=O)CCS(=O)(=O)C1c1ccc(Cl)cc1` (configuration not stated) [CHLORMEZANONE], the “Bacterial Biotransformation” value was “Compound NOT metabolized”.

The nature of the next series: The drug is tested on Parabacteroides merdae strain: ATCC43184 for biotransformation. The drug concentrations were measured before and after a 12-h incubation by liquid-chromatography-coupled mass spectrometry (LC–MS). Conditions: 2 µM.
On to `CCCC1O[C@@H]2C[C@H]3[C@@H]4CCC5=CC(=O)C=C[C@]5(C)[C@H]4[C@@H](O)C[C@]3(C)[C@]2(C(=O)CO)O1` (some centres not stated) [BUDESONIDE], for which the “Bacterial Biotransformation” value is recorded as “Compound metabolized”.

A further series can be described thus: The drug is tested on Edwardsiella tarda strain: ATCC23685 for biotransformation. The drug concentrations were measured before and after a 12-h incubation by liquid-chromatography-coupled mass spectrometry (LC–MS). Conditions: 2 µM.
`O=C1CN2Cc3c(ccc(Cl)c3Cl)N=C2N1` [ANAGRELIDE]: the “Bacterial Biotransformation” value is given as “Compound NOT metabolized”.
The same measure, in the same setting: the same measure for `CCCC1O[C@@H]2C[C@H]3[C@@H]4CCC5=CC(=O)C=C[C@]5(C)[C@H]4[C@@H](O)C[C@]3(C)[C@]2(C(=O)CO)O1` (some centres not stated) [BUDESONIDE]: “Compound NOT metabolized”; for `CN1C(=O)CCS(=O)(=O)C1c1ccc(Cl)cc1` (configuration not stated) [CHLORMEZANONE]: “Compound NOT metabolized”.

The next series in a line: The drug is tested on Bacteroides pectinophilus strain: ATCC43243 for biotransformation. The drug concentrations were measured before and after a 12-h incubation by liquid-chromatography-coupled mass spectrometry (LC–MS). To be noted: 2 µM.
In the case of `O=C1CN2Cc3c(ccc(Cl)c3Cl)N=C2N1` [ANAGRELIDE], the “Bacterial Biotransformation” value is “Compound NOT metabolized”.
The same measure, in the same setting: the same measure for `CCCC1O[C@@H]2C[C@H]3[C@@H]4CCC5=CC(=O)C=C[C@]5(C)[C@H]4[C@@H](O)C[C@]3(C)[C@]2(C(=O)CO)O1` (some centres not stated) [BUDESONIDE]: “Compound NOT metabolized”; for `CN1C(=O)CCS(=O)(=O)C1c1ccc(Cl)cc1` (configuration not stated) [CHLORMEZANONE]: “Compound NOT metabolized”.

Another series in a line: The drug is tested on Eubacterium rectale strain: ATCC33656 for biotransformation. The drug concentrations were measured before and after a 12-h incubation by liquid-chromatography-coupled mass spectrometry (LC–MS). To be noted: agathobacter rectalis, 2 µM.
Turning to `CCCC1O[C@@H]2C[C@H]3[C@@H]4CCC5=CC(=O)C=C[C@]5(C)[C@H]4[C@@H](O)C[C@]3(C)[C@]2(C(=O)CO)O1` (some centres not stated) [BUDESONIDE], the “Bacterial Biotransformation” value was “Compound NOT metabolized”.

A short description of the next series: The drug is tested on Alistipes indistinctus strain: DSM22520 for biotransformation. The drug concentrations were measured before and after a 12-h incubation by liquid-chromatography-coupled mass spectrometry (LC–MS). To be noted: 2 µM.
Regarding `O=C1CN2Cc3c(ccc(Cl)c3Cl)N=C2N1` [ANAGRELIDE], the “Bacterial Biotransformation” value was “Compound NOT metabolized”.
On the same count and under the same terms, with `CCCC1O[C@@H]2C[C@H]3[C@@H]4CCC5=CC(=O)C=C[C@]5(C)[C@H]4[C@@H](O)C[C@]3(C)[C@]2(C(=O)CO)O1` (some centres not stated) [BUDESONIDE] the entry was “Compound NOT metabolized”.
Turning to `CN1C(=O)CCS(=O)(=O)C1c1ccc(Cl)cc1` (configuration not stated) [CHLORMEZANONE], the “Bacterial Biotransformation” value is listed as “Compound metabolized”.

A short description of another series: The drug is tested on Bacteroides ovatus strain: ATCC8483 for biotransformation. The drug concentrations were measured before and after a 12-h incubation by liquid-chromatography-coupled mass spectrometry (LC–MS). Conditions: 2 µM.
Regarding `O=C1CN2Cc3c(ccc(Cl)c3Cl)N=C2N1` [ANAGRELIDE], the “Bacterial Biotransformation” value was “Compound NOT metabolized”.
As to `CCCC1O[C@@H]2C[C@H]3[C@@H]4CCC5=CC(=O)C=C[C@]5(C)[C@H]4[C@@H](O)C[C@]3(C)[C@]2(C(=O)CO)O1` (some centres not stated) [BUDESONIDE], the “Bacterial Biotransformation” value was “Compound NOT metabolized”.
Still for that read-out and setting: the same measure for `CN1C(=O)CCS(=O)(=O)C1c1ccc(Cl)cc1` (configuration not stated) [CHLORMEZANONE]: “Compound NOT metabolized”.

The conditions of the next series: parabacteroides johnsonii, 12 h, 2 µM.
Description: The drug is tested on Parabacteroides johnsonii strain: DSM18315 for biotransformation. The drug concentrations were measured before and after a 12-h incubation by liquid-chromatography-coupled mass spectrometry (LC–MS)
Turning to `O=C1CN2Cc3c(ccc(Cl)c3Cl)N=C2N1` [ANAGRELIDE], the “Bacterial Biotransformation” value is reported as “Compound metabolized”.
On the same count and under the same terms, with `CCCC1O[C@@H]2C[C@H]3[C@@H]4CCC5=CC(=O)C=C[C@]5(C)[C@H]4[C@@H](O)C[C@]3(C)[C@]2(C(=O)CO)O1` (some centres not stated) [BUDESONIDE] the entry was “Compound metabolized”.

The next series in a line: The drug is tested on Anaerotruncus colihominis strain: DSM17241 for biotransformation. The drug concentrations were measured before and after a 12-h incubation by liquid-chromatography-coupled mass spectrometry (LC–MS). To be noted: 2 µM.
For the compound `O=C1CN2Cc3c(ccc(Cl)c3Cl)N=C2N1` [ANAGRELIDE], the “Bacterial Biotransformation” value is reported as “Compound NOT metabolized”.
On the same count and under the same terms, the same measure for `CCCC1O[C@@H]2C[C@H]3[C@@H]4CCC5=CC(=O)C=C[C@]5(C)[C@H]4[C@@H](O)C[C@]3(C)[C@]2(C(=O)CO)O1` (some centres not stated) [BUDESONIDE]: “Compound NOT metabolized”.
With `CN1C(=O)CCS(=O)(=O)C1c1ccc(Cl)cc1` (configuration not stated) [CHLORMEZANONE], the “Bacterial Biotransformation” value was “Compound NOT metabolized”.

The next series in a line: The drug is tested on Clostridium ramosum strain: DSM1402 for biotransformation. The drug concentrations were measured before and after a 12-h incubation by liquid-chromatography-coupled mass spectrometry (LC–MS). To be noted: thomasclavelia ramosa, 2 µM.
With `O=C1CN2Cc3c(ccc(Cl)c3Cl)N=C2N1` [ANAGRELIDE], the “Bacterial Biotransformation” value was “Compound NOT metabolized”.
The same measure, in the same setting: the same measure for `CN1C(=O)CCS(=O)(=O)C1c1ccc(Cl)cc1` (configuration not stated) [CHLORMEZANONE]: “Compound NOT metabolized”.

A further series in a line: The drug is tested on Ruminococcus gnavus strain: ATCC29149 for biotransformation. The drug concentrations were measured before and after a 12-h incubation by liquid-chromatography-coupled mass spectrometry (LC–MS). Conditions: mediterraneibacter gnavus, 2 µM.
For the compound `O=C1CN2Cc3c(ccc(Cl)c3Cl)N=C2N1` [ANAGRELIDE], the “Bacterial Biotransformation” value is listed as “Compound NOT metabolized”.
On the same count and under the same terms, the same measure for `CCCC1O[C@@H]2C[C@H]3[C@@H]4CCC5=CC(=O)C=C[C@]5(C)[C@H]4[C@@H](O)C[C@]3(C)[C@]2(C(=O)CO)O1` (some centres not stated) [BUDESONIDE]: “Compound NOT metabolized”.

The next series in a line: The drug is tested on Enterococcus faecalis strain: V583 for biotransformation. The drug concentrations were measured before and after a 12-h incubation by liquid-chromatography-coupled mass spectrometry (LC–MS). To be noted: 2 µM.
Take `O=C1CN2Cc3c(ccc(Cl)c3Cl)N=C2N1` [ANAGRELIDE]: the “Bacterial Biotransformation” value is “Compound NOT metabolized”.
Still for that read-out and setting: with `CCCC1O[C@@H]2C[C@H]3[C@@H]4CCC5=CC(=O)C=C[C@]5(C)[C@H]4[C@@H](O)C[C@]3(C)[C@]2(C(=O)CO)O1` (some centres not stated) [BUDESONIDE] the entry was “Compound NOT metabolized”.
Still for that read-out and setting: with `CN1C(=O)CCS(=O)(=O)C1c1ccc(Cl)cc1` (configuration not stated) [CHLORMEZANONE] the entry was “Compound NOT metabolized”.

The conditions of the next series: bacteroides fragilis, 12 h, 2 µM.
Description: The drug is tested on Bacteroides fragilis strain: NCTC 9343 for biotransformation. The drug concentrations were measured before and after a 12-h incubation by liquid-chromatography-coupled mass spectrometry (LC–MS)
Regarding `O=C1CN2Cc3c(ccc(Cl)c3Cl)N=C2N1` [ANAGRELIDE], the “Bacterial Biotransformation” value is “Compound NOT metabolized”.
On the same count and under the same terms, with `CN1C(=O)CCS(=O)(=O)C1c1ccc(Cl)cc1` (configuration not stated) [CHLORMEZANONE] the entry was “Compound NOT metabolized”.

Another series is described as follows: The drug is tested on Bacteroides coprophilus strain: DSM18228 for biotransformation. The drug concentrations were measured before and after a 12-h incubation by liquid-chromatography-coupled mass spectrometry (LC–MS). Conditions: 2 µM.
With `O=C1CN2Cc3c(ccc(Cl)c3Cl)N=C2N1` [ANAGRELIDE], the “Bacterial Biotransformation” value is on record as “Compound NOT metabolized”.
Still for that read-out and setting: with `CCCC1O[C@@H]2C[C@H]3[C@@H]4CCC5=CC(=O)C=C[C@]5(C)[C@H]4[C@@H](O)C[C@]3(C)[C@]2(C(=O)CO)O1` (some centres not stated) [BUDESONIDE] the entry was “Compound NOT metabolized”; with `CN1C(=O)CCS(=O)(=O)C1c1ccc(Cl)cc1` (configuration not stated) [CHLORMEZANONE], “Compound NOT metabolized”.
